No end group written: not given here.
Tests used:
T2 cells = experiment: Cytotoxicity of peptide-stimulated blood cells (CTL) against T2 cells sensitized by synthesized peptides, Cr51 release; format: cell-based, human; conditions: for Specific cytotoxicity by CTL (%): T2 cells sensitized with 100 μg/ml peptide
Experimental: That is, blood positive to anti-HBV antibody(value obtained by ELISA: 1.0 or more) is collected from common blood donors, and centrifuged to harvest blood cells. The said peptides added in a concentration of 10 μg/ml to leukocytes remained after removing red blood cells from the blood cells, and incubated at 37° C. in a CO2 incubator maintained to contain 5% CO2. At 2 days after culture, 10 unit of interleukin-2 was added to the culture medium and the cells were further cultivated for 3 days. Then, blood cells having the same MHC were inactivated by mitomycin C and added to the culture medium as stimulating cells. And the peptides and interleukin-2 were added to the medium and the cells were further cultivated for 7 days. Then, it was determined whether the blood cells recognize and destruct T2 cells having a certain peptide at their surface, and the results were shown in Table 3 below and FIG. 2, respectively.
Destruction of T2 cell by cultured blood cell was determined as followings: 100 μg/ml of a peptide was added to T2 cells and reacted at 37° C. for 3 hours. Then, the cells were washed sufficiently to remove unreacted peptides, added with radioactive sodium chromate(Cr^51), and reacted at 37° C. for 2 hours in a CO2 incubator. And then, they were washed with RPMI medium sufficiently to remove unreacted sodium chromate, mixed with blood cells washed with PBS in a certain ratio, and reacted at 37° C. for 4 hours in a CO2 incubator. The resultant medium was collected and measured for intensity of gamma ray to determine cytotoxicity of the blood cells against T2 cell, i.e., target cell.

p815 cell = experiment: Cytotoxicity of T lymphocytes from Balb/C mice immunized with pH-sensitive liposomes comprising HIV peptides, Cr51 release; format: in vivo, Balb/C mouse; conditions: mice immunized with pH-sensitive liposomes (POPE/CHOH 7:3) comprising the peptide
Experimental: (§1) In order to investigate whether pH-sensitive liposome as a carrier of peptides can induce CTL response specific to the virus from which the peptides are derived, pH-sensitive liposomes encapsulating synthetic peptides were prepared and cytotoxicity study were carried out in a serial manner. Since the cellular immunity of the pepitides which can bind HLA-A2, a human MHC class I molecule should be investigated employing human body, indirect experiment employing the peptides derived HIV and HCV proteins which can bind mouse MHC Class I molecule(see: Table 4 below), was carried out. In this regard, the pH-sensitive liposome comprising the peptides were obtained employing the phospholipid composition consisting of POPE/CHOH(7:3 in a molar ratio). Then, mice were immunized with the liposomes, T lymphocytes were isolated from the mice, and cytotoxicity of the T lymphocytes after recognition of target cells labelled with Cr^51 was determined.
In case of HIV, Balb/C mouse was immunized with pH-sensitive liposomes comprising R15K or T26K, and at 4 weeks after booster immunization, its spleen was dissected and homogenized in 2 ml of RPMI cell culture medium using a homogenizer. 2 ml of the homogenate thus obtained was added to 2 ml of ficoll and centrifuged at 1,500 rpm for 30 minutes. T lymphocytes located between ficoll and the cell culture medium were separated, added to 15 ml of RPMI-10 cell culture medium, centrifuged at 1,000 rpm, and washed three times with the RPMI-10 medium. The T lymphocytes were diluted to a cell concentration of 5×10^6/ ml into a 24 well-plate, and the immunized peptide antigen was added to a final concentration of 2 μM. Then, the cells were cultured at 37° C. for 3 days in a CO2 incubator containing 5% CO2 and used as effector cells. In case of HCV, 5 week-old C57BL/6 mouse was immunized with liposomes comprising DBL peptide antigen, and T lymphocytes were isolated in the same manner as above and used as effector cells. On the other hand, p815 cell(ATCC TIB64) having MHC Class I same as that of Balb/C mouse was used as a target cell in case of HIV, and RMA cell(see: Hosken, N. A. and Bevan, M. J., J. Exp. Med., 175:719(1992)) or EL4 cell(ATCC TIB39) having MHC Class I same as that of C57BL/6 mouse was used as a target cell in case of HCV.
100 μM of the immunized peptide was added to the respective target cells, reacted at 37° C. for 16 hours, and washed twice with RPMI cell culture medium. Then, radioactive sodium chromate(Cr^51) was added to the cells and reacted at 37° C. for 2 hours in a CO2 incubator. After reaction, the cells were washed sufficiently with RPMI cell culture medium to remove unreacted sodium chromate, mixed with effector cells washed with phosphate buffer solution in various mixing ratios shown in table 5 below, and reacted at 37° C. for 4 hours in a CO2 incubator. The resultant medium was collected and measured for the intensity of gamma ray to determine cytotoxicity of effector cells against target cells(see: Table 5).

RMA cell or EL4 cell = experiment: Cytotoxicity of T lymphocytes from C57BL/6 mice immunized with pH-sensitive liposomes comprising HCV peptide, Cr51 release; format: in vivo, C57BL/6 mouse; conditions: mice immunized with pH-sensitive liposomes (POPE/CHOH 7:3) comprising the peptide
Experimental: as §1
In case of HIV, Balb/C mouse was immunized with pH-sensitive liposomes comprising R15K or T26K, and at 4 weeks after booster immunization, its spleen was dissected and homogenized in 2 ml of RPMI cell culture medium using a homogenizer. 2 ml of the homogenate thus obtained was added to 2 ml of ficoll and centrifuged at 1,500 rpm for 30 minutes. T lymphocytes located between ficoll and the cell culture medium were separated, added to 15 ml of RPMI-10 cell culture medium, centrifuged at 1,000 rpm, and washed three times with the RPMI-10 medium. The T lymphocytes were diluted to a cell concentration of 5×10^6/ ml into a 24 well-plate, and the immunized peptide antigen was added to a final concentration of 2 μM. Then, the cells were cultured at 37° C. for 3 days in a CO2 incubator containing 5% CO2 and used as effector cells. […]
100 μM of the immunized peptide was added to the respective target cells, reacted at 37° C. for 16 hours, and washed twice with RPMI cell culture medium. […] The resultant medium was collected and measured for the intensity of gamma ray to determine cytotoxicity of effector cells against target cells(see: Table 5).

[1] = target: T1, HLA-A2.1, a human MHC Class I molecule (Homo sapiens, UniProt P04439, D140Y/D185E/D98H/E176V/E277Q/G131W/G231S/I119V/I121R/I166T/I218V/L300P/L318F/N151K/N90K/P208A/P217A/Q86G/Q94H/R138H/R169H/T345S); experiment: Binding of synthetic peptides to MHC Class I molecules at the surface of T2 cell (BB7.2 antibody, fluorocytometry); format: cell-based; conditions: peptide 1-100 μg/ml, 37° C., 4 hours; FIG. 1
T1 construct: endogenous in cells; host or cells: T2 cell line
Experimental: Seven different peptides including the peptides as disclosed in Table 1 above which were derived from HBV X protein were synthesized chemically and dissolved in phosphate buffered saline(hereinafter, referred to as “PBS”). In order to investigate whether the peptides can bind to MHC Class I molecules associated with induction of CTL, each peptide was added to T2 cell line in a concentration of 100, 64, 32, 16, 8, 4, 2 and 1 μg/ml, respectively, and reacted at 37° C. for 4 hours. And then, the cells were washed with PBS to remove unreacted peptides, added with BB7.2 antibody against HLA-A2.1, a human MHC Class I molecule, and reacted at 4° C. for 1 hour. The cells were washed with PBS again, added with fluorescein isothiocyanate(FITC)-conjugated anti-mouse immunoglobulin antibody, and reacted at 4° C. for 1 hour. Then, fluorescence of the cells was determined using fluorocytometer(FACScan, BECTON DICKINSON) and the results were shown in FIG. 1.
However, when T2 cells are cultivated in a medium containing peptides which can bind to MHC molecules, the peptides bind to MHC molecules at the surface of T2 cell to increase stability of MHC molecules, which results in increase in expression of MHC molecule. Based on the knowledge, binding of a specific peptide to MHC molecule at the surface of T2 cell can be analyzed by determining degree of binding of BB7.2 antibody to the cell surface.

[2] = Ratio of CTL against target cell 5:1
[3] = Ratio of CTL against target cell 10:1
[4] = Ratio of CTL against target cell 25:1

VLCLRPVGA [×1, VLCLRPVGA]
Specific cytotoxicity by CTL (%) (T2 cells; [2]): 6% | Specific cytotoxicity by CTL (%) (T2 cells; [3]): 11% | Specific cytotoxicity by CTL (%) (T2 cells; [4]): 15%

CC[C@H](C)[C@H](NC(=O)[C@@H](NC(=O)[C@@H](NC(=O)[C@H](Cc1ccccc1)NC(=O)[C@H](C)NC(=O)[C@H](CCCNC(=N)N)NC(=O)CNC(=O)[C@@H]1CCCN1C(=O)CNC(=O)[C@H](CCCNC(=N)N)NC(=O)[C@H](CCC(N)=O)NC(=O)[C@@H](NC(=O)[C@@H](N)CCCNC(=N)N)[C@@H](C)CC)C(C)C)[C@@H](C)O)C(=O)NCC(=O)N[C@@H](CCCCN)C(=O)O [R15K, RIQRGPGRAFVTIGK]
Specific cytotoxicity by CTL (%) (p815 cell; target cell:effector cell 1:10): 7.5% | Specific cytotoxicity by CTL (%) (p815 cell; target cell:effector cell 1:20): 15% | Specific cytotoxicity by CTL (%) (p815 cell; target cell:effector cell 1:30): 25%

HLSLRGLFV [×3, HLSLRGLFV]
Specific cytotoxicity by CTL (%) (T2 cells; [2]): 10% | Specific cytotoxicity by CTL (%) (T2 cells; [3]): 17% | Specific cytotoxicity by CTL (%) (T2 cells; [4]): 20%

CC[C@H](C)[C@H](NC(=O)[C@H](CCCNC(=N)N)NC(=O)[C@@H](NC(=O)[C@H](CCCNC(=N)N)NC(=O)[C@H](CCCCN)NC(=O)[C@H](CCCNC(=N)N)NC(=O)[C@@H](NC(=O)[C@H](CC(N)=O)NC(=O)[C@H](CC(N)=O)NC(=O)[C@H](CC(N)=O)NC(=O)[C@@H]1CCCN1C(=O)[C@H](CCCNC(=N)N)NC(=O)[C@@H](N)[C@@H](C)O)[C@@H](C)O)[C@@H](C)CC)C(=O)N[C@@H](CCC(N)=O)C(=O)N[C@@H](CCCNC(=N)N)C(=O)NCC(=O)N1CCC[C@H]1C(=O)NCC(=O)N[C@@H](CCCNC(=N)N)C(=O)N[C@@H](C)C(=O)N[C@@H](Cc1ccccc1)C(=O)N[C@H](C(=O)N[C@H](C(=O)N[C@H](C(=O)NCC(=O)N[C@@H](CCCCN)C(=O)O)[C@@H](C)CC)[C@@H](C)O)C(C)C [T26K]
Specific cytotoxicity by CTL (%) (p815 cell; target cell:effector cell 1:10): 55% | Specific cytotoxicity by CTL (%) (p815 cell; target cell:effector cell 1:20): 80% | Specific cytotoxicity by CTL (%) (p815 cell; target cell:effector cell 1:30): 87%

CC(C)C[C@H](NC(=O)CNC(=O)[C@H](CC(C)C)NC(=O)[C@@H](NC(=O)[C@H](CCCNC(=N)N)NC(=O)[C@H](CCCCN)NC(=O)[C@H](Cc1c[nH]cn1)NC(=O)[C@H](CC(C)C)NC(=O)[C@@H](N)C(C)C)[C@@H](C)O)C(=O)O [×4, VLHKRTLGL]
Specific cytotoxicity by CTL (%) (T2 cells; [2]): 8% | Specific cytotoxicity by CTL (%) (T2 cells; [3]): 16% | Specific cytotoxicity by CTL (%) (T2 cells; [4]): 21%

DLMGYIPL [D8L, DLMGYIPL]
Specific cytotoxicity by CTL (%) (RMA cell or EL4 cell; target cell:effector cell 1:10): 5.5% | Specific cytotoxicity by CTL (%) (RMA cell or EL4 cell; target cell:effector cell 1:20): 18% | Specific cytotoxicity by CTL (%) (RMA cell or EL4 cell; target cell:effector cell 1:30): 30%

TLPSPSSSA [×2, TLPSPSSSA]
Specific cytotoxicity by CTL (%) (T2 cells; [2]): 5% | Specific cytotoxicity by CTL (%) (T2 cells; [3]): 10% | Specific cytotoxicity by CTL (%) (T2 cells; [4]): 11%

CLFKDWEEL (Hepatitis B virus) [×6, peptide derived from HBV X protein, position 115-123]
Binding to MHC Class I molecules at the surface of T2 cell [1]: successfully bind | Specific cytotoxicity by CTL (%) (T2 cells; [2]): 11% | Specific cytotoxicity by CTL (%) (T2 cells; [3]): 16% | Specific cytotoxicity by CTL (%) (T2 cells; [4]): 23% | Recognition of peptide by cultured blood cells (CTL) (T2 cells; blood cells from anti-HBV antibody positive donors): recognized by cultured blood cells

EIRLKVFVL [×7, EIRLKVFVL]
Specific cytotoxicity by CTL (%) (T2 cells; [2]): 12% | Specific cytotoxicity by CTL (%) (T2 cells; [3]): 19% | Specific cytotoxicity by CTL (%) (T2 cells; [4]): 24%

AMSTTDLEA [×5, AMSTTDLEA]
Specific cytotoxicity by CTL (%) (T2 cells; [2]): 16% | Specific cytotoxicity by CTL (%) (T2 cells; [3]): 24% | Specific cytotoxicity by CTL (%) (T2 cells; [4]): 31%
